Cc1[nH]nc2cc([N+](=O)[O-])ccc12
solubility (mole fraction) (in DMF, 278.15 K): 0.149
solubility (mole fraction) (in DMF, 283.15 K): 0.161
solubility (mole fraction) (in DMF, 288.15 K): 0.177
solubility (mole fraction) (in DMF, 293.15 K): 0.195
solubility (mole fraction) (in DMF, 298.15 K): 0.215
solubility (mole fraction) (in DMF, 303.15 K): 0.236
solubility (mole fraction) (in DMF, 308.15 K): 0.259
solubility (mole fraction) (in DMF, 313.15 K): 0.283
solubility (mole fraction) (in DMF, 318.15 K): 0.309
solubility (mole fraction) (in DMF, 323.15 K): 0.337
solubility (mole fraction) (in DMF, 328.15 K): 0.371
solubility (mole fraction) (in THF, 278.15 K): 0.0579
solubility (mole fraction) (in THF, 283.15 K): 0.0615
solubility (mole fraction) (in THF, 288.15 K): 0.0671
solubility (mole fraction) (in THF, 293.15 K): 0.0726
solubility (mole fraction) (in THF, 298.15 K): 0.0781
solubility (mole fraction) (in THF, 303.15 K): 0.0845
solubility (mole fraction) (in THF, 308.15 K): 0.0903
solubility (mole fraction) (in THF, 313.15 K): 0.097
solubility (mole fraction) (in THF, 318.15 K): 0.105
solubility (mole fraction) (in THF, 323.15 K): 0.113
solubility (mole fraction) (in THF, 328.15 K): 0.123
solubility (mole fraction) (in acetone, 278.15 K): 0.0251
solubility (mole fraction) (in acetone, 283.15 K): 0.0295
solubility (mole fraction) (in acetone, 288.15 K): 0.0336
solubility (mole fraction) (in acetone, 293.15 K): 0.0382
solubility (mole fraction) (in acetone, 298.15 K): 0.0433
solubility (mole fraction) (in acetone, 303.15 K): 0.0481
solubility (mole fraction) (in acetone, 308.15 K): 0.0538
solubility (mole fraction) (in acetone, 313.15 K): 0.0595
solubility (mole fraction) (in acetone, 318.15 K): 0.0661
solubility (mole fraction) (in acetone, 323.15 K): 0.0738
solubility (mole fraction) (in acetone, 328.15 K): 0.0829
solubility (mole fraction) (in acetonitrile, 278.15 K): 0.0093
solubility (mole fraction) (in acetonitrile, 283.15 K): 0.0109
solubility (mole fraction) (in acetonitrile, 288.15 K): 0.0123
solubility (mole fraction) (in acetonitrile, 293.15 K): 0.0139
solubility (mole fraction) (in acetonitrile, 298.15 K): 0.0156
solubility (mole fraction) (in acetonitrile, 303.15 K): 0.0174
solubility (mole fraction) (in acetonitrile, 308.15 K): 0.019
solubility (mole fraction) (in acetonitrile, 313.15 K): 0.0206
solubility (mole fraction) (in acetonitrile, 318.15 K): 0.0222
solubility (mole fraction) (in acetonitrile, 323.15 K): 0.0239
solubility (mole fraction) (in acetonitrile, 328.15 K): 0.0254
solubility (mole fraction) (in ethanol, 278.15 K): 0.0042
solubility (mole fraction) (in ethanol, 283.15 K): 0.0051
solubility (mole fraction) (in ethanol, 288.15 K): 0.0059
solubility (mole fraction) (in ethanol, 293.15 K): 0.007
solubility (mole fraction) (in ethanol, 298.15 K): 0.0083
solubility (mole fraction) (in ethanol, 303.15 K): 0.01
solubility (mole fraction) (in ethanol, 308.15 K): 0.012
solubility (mole fraction) (in ethanol, 313.15 K): 0.014
solubility (mole fraction) (in ethanol, 318.15 K): 0.0164
solubility (mole fraction) (in ethanol, 323.15 K): 0.0194
solubility (mole fraction) (in ethanol, 328.15 K): 0.0227
solubility (mole fraction) (in ethyl acetate, 278.15 K): 0.016
solubility (mole fraction) (in ethyl acetate, 283.15 K): 0.0183
solubility (mole fraction) (in ethyl acetate, 288.15 K): 0.021
solubility (mole fraction) (in ethyl acetate, 293.15 K): 0.0232
solubility (mole fraction) (in ethyl acetate, 298.15 K): 0.0255
solubility (mole fraction) (in ethyl acetate, 303.15 K): 0.0295
solubility (mole fraction) (in ethyl acetate, 308.15 K): 0.0328
solubility (mole fraction) (in ethyl acetate, 313.15 K): 0.0363
solubility (mole fraction) (in ethyl acetate, 318.15 K): 0.0394
solubility (mole fraction) (in ethyl acetate, 323.15 K): 0.043
solubility (mole fraction) (in ethyl acetate, 328.15 K): 0.0456
solubility (mole fraction) (in n-propanol, 278.15 K): 0.0051
solubility (mole fraction) (in n-propanol, 283.15 K): 0.0061
solubility (mole fraction) (in n-propanol, 288.15 K): 0.0073
solubility (mole fraction) (in n-propanol, 293.15 K): 0.0084
solubility (mole fraction) (in n-propanol, 298.15 K): 0.0096
solubility (mole fraction) (in n-propanol, 303.15 K): 0.0108
solubility (mole fraction) (in n-propanol, 308.15 K): 0.012
solubility (mole fraction) (in n-propanol, 313.15 K): 0.0136
solubility (mole fraction) (in n-propanol, 318.15 K): 0.0155
solubility (mole fraction) (in n-propanol, 323.15 K): 0.0176
solubility (mole fraction) (in n-propanol, 328.15 K): 0.0204
solubility (mole fraction) (in water, 278.15 K): 2.1e-05
solubility (mole fraction) (in water, 283.15 K): 2.7e-05
solubility (mole fraction) (in water, 288.15 K): 3.6e-05
solubility (mole fraction) (in water, 293.15 K): 4.71e-05
solubility (mole fraction) (in water, 298.15 K): 6.31e-05
solubility (mole fraction) (in water, 303.15 K): 8.01e-05
solubility (mole fraction) (in water, 308.15 K): 9.91e-05
solubility (mole fraction) (in water, 313.15 K): 0.000123
solubility (mole fraction) (in water, 318.15 K): 0.000147
solubility (mole fraction) (in water, 323.15 K): 0.000179
solubility (mole fraction) (in water, 328.15 K): 0.000218

From BigSolDB 2.1
